Laboratory results published in PMC6886544.
Values joined by “and” are separate entries in the source; they are usually repeats but may differ in a detail not shown here. Equal entries are not always repeated. Where two headings read alike, the source gives them in different places.

Experiments:
[1] = system: HCC827 cells (EGFR-delE746_A750); assay: CellTiter-Glo viability assay, HCC827; format: cell-based; settings: Homo sapiens, read-out: EGFR CTG EC50 HCC827;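 also: luminescence from ATP content as a measure of metabolically active cells, in RPMI with 10% FBS, compound added as serial dilutions after 24 h of preculture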
[2] = system: H358 cells (KRAS mutant); assay: CellTiter-Glo viability assay, H358; format: cell-based; settings: Homo sapiens, read-out: KRAS CTG EC50 H358;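 also: viable cell number estimated from ATP-dependent luminescence following exposure to serially diluted inhibitor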
[3] = Microsomal stability (phase I), mouse; format: in vitro ADME; settings: mouse liver microsomes, up to 60 minutes, 37 °C
Experimental: (§1) Microsomal stability (phase I) assay.
(§2) Metabolic stability under oxidative conditions was measured in liver microsomes from different
(§3) time up to 50 minutes (HLM) or 60 minutes (MLM) at 37 °C. Based on the compound half-life t1/2,
(§4) the in vitro intrinsic clearance CLint was calculated. […]

[4] = system: A431 cells (EGFR wild type); assay: CellTiter-Glo viability assay, A431; settings: Homo sapiens, A-431, 96 h
[5] = system: A549 cells (KRAS mutant); assay: CellTiter-Glo viability assay, A549; settings: Homo sapiens, A549, 96 h, read-out: KRAS CTG EC50 A549
[6] = system: H1975 cells (EGFR-L858R/T790M); assay: CellTiter-Glo viability assay, H1975
[7] = molecular target: EGFR-wt (Homo sapiens, UniProt P00533); assay: HTRF KinEASE-TK activity-based assay, EGFR-wt; settings: EGFR HTRF IC50 wt, ATP at Km (9.5 µM), 30 min preincubation; mean ± SD of three independent measurements in duplicates
Sequence of EGFR-wt (P00533 25-1210): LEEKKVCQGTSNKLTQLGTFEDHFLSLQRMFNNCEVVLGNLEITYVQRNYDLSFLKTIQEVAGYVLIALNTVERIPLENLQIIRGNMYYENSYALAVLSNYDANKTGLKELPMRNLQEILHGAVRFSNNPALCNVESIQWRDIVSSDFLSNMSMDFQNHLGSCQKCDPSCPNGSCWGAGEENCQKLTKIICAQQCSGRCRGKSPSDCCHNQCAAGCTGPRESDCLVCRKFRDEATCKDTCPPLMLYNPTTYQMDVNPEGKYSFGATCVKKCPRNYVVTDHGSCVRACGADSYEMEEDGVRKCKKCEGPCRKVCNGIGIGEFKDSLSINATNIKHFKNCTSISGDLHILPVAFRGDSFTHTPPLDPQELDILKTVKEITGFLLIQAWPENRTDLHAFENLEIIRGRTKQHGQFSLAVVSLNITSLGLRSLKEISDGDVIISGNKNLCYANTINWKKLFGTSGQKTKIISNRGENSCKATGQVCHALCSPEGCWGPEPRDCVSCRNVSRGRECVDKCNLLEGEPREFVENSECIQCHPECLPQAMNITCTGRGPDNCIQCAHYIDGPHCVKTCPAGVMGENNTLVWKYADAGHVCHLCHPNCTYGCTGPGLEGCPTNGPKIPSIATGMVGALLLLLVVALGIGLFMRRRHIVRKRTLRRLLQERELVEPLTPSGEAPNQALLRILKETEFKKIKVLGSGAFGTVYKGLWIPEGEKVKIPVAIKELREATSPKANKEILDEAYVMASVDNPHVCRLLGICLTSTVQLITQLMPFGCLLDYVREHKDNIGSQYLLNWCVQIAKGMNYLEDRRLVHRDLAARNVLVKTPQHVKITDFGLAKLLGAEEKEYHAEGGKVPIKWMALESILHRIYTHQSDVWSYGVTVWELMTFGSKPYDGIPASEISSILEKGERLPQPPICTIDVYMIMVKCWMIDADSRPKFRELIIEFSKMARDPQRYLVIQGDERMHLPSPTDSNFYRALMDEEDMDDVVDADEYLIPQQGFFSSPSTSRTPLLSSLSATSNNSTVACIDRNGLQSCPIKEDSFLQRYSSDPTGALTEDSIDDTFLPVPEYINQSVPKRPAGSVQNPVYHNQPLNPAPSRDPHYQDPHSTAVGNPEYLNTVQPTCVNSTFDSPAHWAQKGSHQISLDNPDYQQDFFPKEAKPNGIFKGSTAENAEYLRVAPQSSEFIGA

[8] = molecular target: EGFR-L858R (Homo sapiens, UniProt P00533, L858R); assay: HTRF KinEASE-TK activity-based assay, EGFR-L858R
Sequence of EGFR-L858R (P00533 25-1210 L858R): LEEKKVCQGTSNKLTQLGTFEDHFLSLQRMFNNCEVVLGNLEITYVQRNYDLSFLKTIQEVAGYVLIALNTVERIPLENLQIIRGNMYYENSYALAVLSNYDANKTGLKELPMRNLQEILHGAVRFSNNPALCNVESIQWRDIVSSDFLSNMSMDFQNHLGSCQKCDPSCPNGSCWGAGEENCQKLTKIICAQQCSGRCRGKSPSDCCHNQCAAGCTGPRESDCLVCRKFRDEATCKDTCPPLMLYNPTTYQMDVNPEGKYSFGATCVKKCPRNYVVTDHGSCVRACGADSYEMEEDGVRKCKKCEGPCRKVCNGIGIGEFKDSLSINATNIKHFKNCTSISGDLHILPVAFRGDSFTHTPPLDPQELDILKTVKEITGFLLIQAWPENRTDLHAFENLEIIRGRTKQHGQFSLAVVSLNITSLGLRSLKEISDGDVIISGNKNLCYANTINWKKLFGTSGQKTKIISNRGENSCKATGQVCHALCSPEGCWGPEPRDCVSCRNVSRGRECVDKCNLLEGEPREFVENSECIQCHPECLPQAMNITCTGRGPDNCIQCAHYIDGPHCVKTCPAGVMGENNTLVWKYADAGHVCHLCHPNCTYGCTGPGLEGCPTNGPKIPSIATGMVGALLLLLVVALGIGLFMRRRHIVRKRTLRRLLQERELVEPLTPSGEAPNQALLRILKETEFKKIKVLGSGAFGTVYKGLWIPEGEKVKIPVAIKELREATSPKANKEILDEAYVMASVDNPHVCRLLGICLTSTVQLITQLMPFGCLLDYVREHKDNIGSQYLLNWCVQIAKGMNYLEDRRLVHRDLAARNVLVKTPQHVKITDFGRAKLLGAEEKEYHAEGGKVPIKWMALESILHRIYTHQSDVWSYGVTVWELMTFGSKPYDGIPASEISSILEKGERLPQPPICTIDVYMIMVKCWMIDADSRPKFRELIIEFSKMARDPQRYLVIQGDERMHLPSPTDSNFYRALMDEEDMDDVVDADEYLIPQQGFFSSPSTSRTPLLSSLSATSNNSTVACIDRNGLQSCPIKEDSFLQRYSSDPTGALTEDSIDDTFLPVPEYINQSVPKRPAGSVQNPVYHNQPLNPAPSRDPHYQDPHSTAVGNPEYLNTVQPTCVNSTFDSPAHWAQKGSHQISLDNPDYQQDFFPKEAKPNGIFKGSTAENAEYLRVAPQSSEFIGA

[9] = molecular target: EGFR-L858R/T790M (Homo sapiens, UniProt P00533, L858R/T790M); assay: HTRF KinEASE-TK activity-based assay, EGFR-L858R/T790M; settings: EGFR HTRF IC50 L858R/T790M, ATP at Km (4 µM), 30 min preincubation; mean ± SD of three independent measurements in duplicates
Sequence of EGFR-L858R/T790M (P00533 25-1210 T790M/L858R): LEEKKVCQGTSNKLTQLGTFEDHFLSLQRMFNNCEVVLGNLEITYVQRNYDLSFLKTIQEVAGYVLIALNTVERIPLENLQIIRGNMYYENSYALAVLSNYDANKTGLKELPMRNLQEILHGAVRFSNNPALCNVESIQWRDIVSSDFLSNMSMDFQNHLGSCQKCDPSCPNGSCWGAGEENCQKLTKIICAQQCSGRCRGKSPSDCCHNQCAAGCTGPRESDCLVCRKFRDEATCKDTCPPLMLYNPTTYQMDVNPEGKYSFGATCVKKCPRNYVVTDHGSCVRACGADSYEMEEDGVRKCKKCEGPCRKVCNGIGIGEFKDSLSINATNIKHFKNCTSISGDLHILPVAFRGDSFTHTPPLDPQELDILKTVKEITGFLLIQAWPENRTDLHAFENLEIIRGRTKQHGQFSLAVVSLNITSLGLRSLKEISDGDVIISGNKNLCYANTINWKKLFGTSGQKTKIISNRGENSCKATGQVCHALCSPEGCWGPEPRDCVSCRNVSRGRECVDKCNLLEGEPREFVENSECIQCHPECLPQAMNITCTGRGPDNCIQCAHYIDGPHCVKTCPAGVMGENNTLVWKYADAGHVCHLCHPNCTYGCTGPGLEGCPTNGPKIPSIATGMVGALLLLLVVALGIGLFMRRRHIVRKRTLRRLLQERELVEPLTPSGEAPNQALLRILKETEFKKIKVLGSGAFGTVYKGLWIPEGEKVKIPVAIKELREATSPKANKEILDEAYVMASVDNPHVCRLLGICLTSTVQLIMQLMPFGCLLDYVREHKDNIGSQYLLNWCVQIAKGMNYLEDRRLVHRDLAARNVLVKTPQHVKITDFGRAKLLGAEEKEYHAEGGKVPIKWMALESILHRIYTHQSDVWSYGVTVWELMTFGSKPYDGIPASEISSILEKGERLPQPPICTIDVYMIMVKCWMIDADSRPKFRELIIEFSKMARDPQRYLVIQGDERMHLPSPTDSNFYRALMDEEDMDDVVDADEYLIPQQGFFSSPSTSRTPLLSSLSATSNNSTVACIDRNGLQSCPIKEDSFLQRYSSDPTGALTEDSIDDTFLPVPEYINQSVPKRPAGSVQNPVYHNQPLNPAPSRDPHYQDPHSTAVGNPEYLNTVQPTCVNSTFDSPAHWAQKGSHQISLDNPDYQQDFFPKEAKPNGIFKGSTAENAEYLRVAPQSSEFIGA

[10] = Microsomal stability (phase I), human; format: in vitro ADME; settings: human liver microsomes, up to 50 minutes, 37 °C
Experimental: as §1, §2, §3, §4

[11] = Plasma stability, human; format: in vitro ADME; settings: 5 µM, 1 h, 37 °C
[12] = Plasma stability, mouse; format: in vitro ADME; settings: 5 µM, 1 h, 37 °C
[13] = Plasma protein binding, human; format: in vitro ADME; settings: equilibrium dialysis, 37 °C
Experimental: (§5) Assessment of plasma protein binding was measured by equilibrium dialysis by incubating plasma
(§6) based determination of final compound concentrations. […]

[14] = Plasma protein binding, mouse; format: in vitro ADME; settings: equilibrium dialysis, 37 °C
Experimental: as §5, §6

[15] = PAMPA (parallel artificial membrane permeability assay); format: in vitro ADME; settings: pH 7.4, 500 µM, 16 hours
Experimental: masses and 0.02 Da for fragment ions. FDR was adjusted to 1% on peptide spectrum match […]
as §1
Metabolic stability under oxidative conditions was measured in liver microsomes from different species by LC/MS-based measuring of depletion of compound at a concentration of 3 µM over time up to 50 minutes (HLM) or 60 minutes (MLM) at 37 °C. Based on the compound half-life t1/2, the in vitro intrinsic clearance CLint was calculated.
Plasma stability was measured by LC/MS-based determination of the percentage of remaining compounds at a concentration of 5 µM after incubation in plasma obtained from different species […]
Assessment of plasma protein binding was measured by equilibrium dialysis by incubating plasma with the compound of interest at a concentration of 5 µM for 6 h at 37 °C followed by LC/MS-based determination of final compound concentrations.
PAMPA (Parallel artificial membrane permeability assay). […]
temperature in a wet chamber, the optical density of the solution in the receiver well was measured between 250 and 500 nm in intervals of 10 nm. The percent flux was calculated from […]

[16] = Caco-2 assay; format: in vitro ADME; settings: human, Caco-2, 5 μM, pH 7.4, 2 hours; for Papp A→B at 2 h, 5 μM: apical to basolateral, read-out: Caco-2: Papp AB; for Papp B→A at 2 h, 5 μM: basolateral to apical, read-out: Caco-2: Papp BA
Experimental: For Caco-2 cell assay, a 10 mM DMSO stock of the compound was diluted to a final concentration of 5 μM in HBSS buffer pH 7.4 and incubated for 2 hours at 37 °C and 5% CO2 on a monolayer of Caco-2 cells (ATCC) that had been grown on a transwell membrane (Millipore, Schwalbach, Germany) for 21 days. The compound concentration was measured in the receiver as well as the donor well. Apparent permeability (Papp) from either the apical to basolateral direction or vice versa […]
is the donor drug concentration at t = 0, and dQ/dt is the amount of drug transported within the given time period of 2 hours. […]

[17] = HCC827, 96 hours, CellTiter-Glo
[18] = NCI-H358, H358, 96 hours, CellTiter-Glo
[19] = read-out: EGFR CTG EC50 A431, A431, 96 hours, CellTiter-Glo
[20] = Homo sapiens, NCI-H1975, 96 h, read-out: EGFR CTG EC50 H1975, H1975, 96 hours, CellTiter-Glo
[21] = read-out: EGFR CTG EC50 H1975, H1975, 96 hours, CellTiter-Glo

Row | EC50 [1, 17] | EC50 [2, 18] | microsomal CLint at 3 µM [3] | EC50 [4, 19] | EC50 [5] | EC50 [6, 20] | IC50 [7] | IC50 [8] | IC50 [9] | Structure (SMILES) | other results
1 | < 14 nM | 4470 nM | 8 µL/min/mg | 1320 ± 777 nM | 5850 nM | ~300 nM | 0.2 ± 0.2 nM | < 0.1 nM | 0.1 ± 0.1 nM | C=CC(=O)Nc1cc(-c2c(-c3ccc(N4CCN(C)CC4)cc3)[nH]c3ncnc(OC)c23)ccc1OC(C)COC (centres unmarked) [Compound 20b] | EC50 [6, 21]: 375 ± 252 nM
2 | < 14 nM | 1940 ± 45 nM | 84 µL/min/mg | 502 ± 166 nM | 2130 ± 990 nM | 263 ± 46 nM | 0.1 nM | < 0.1 nM | > 1 nM and 1.2 nM | C=CC(=O)Nc1cccc(-c2c(-c3ccc(N4CCN(C)CC4)cc3)[nH]c3ncn(C4CCCC4)c(=O)c23)c1 [Compound 29i] | –
3 | 20 ± 6 nM | 4390 ± 512 nM | 66 µL/min/mg | 2140 ± 439 nM | 4000 ± 545 nM | 97 ± 37 nM | – | – | – | C=CC(=O)Nc1cccc(Oc2nc(Nc3ccc(N4CCN(C)CC4)cc3OC)ncc2Cl)c1 [WZ4002, reference compound] | microsomal CLint at 3 µM [10]: 11 µL/min/mg; Plasma stability [11]: 86 %remain; Plasma stability [12]: 78 %remain; fraction unbound at 6 h, 5 µM [13]: 0.008; fraction unbound at 6 h, 5 µM [14]: 0.019; Papp A→B at 2 h, 5 μM [16]: 4.9 ×10⁻⁶ cm/s; Papp B→A at 2 h, 5 μM [16]: 11.7 ×10⁻⁶ cm/s

The remaining lines, values behind:

Row | Structure (SMILES) | EC50 [1, 17] | EC50 [2, 18] | microsomal CLint at 3 µM [3] | EC50 [4, 19] | EC50 [5] | EC50 [6, 20] | IC50 [7] | IC50 [8] | IC50 [9] | other results
4 | C=CC(=O)Nc1cccc(-c2c(-c3ccc(N4CCN(C)CC4)cc3)[nH]c3ncnc(OCCCC)c23)c1 [Compound 19d] | < 14 nM | 1640 ± 813 nM | 50 µL/min/mg | 1530 ± 273 nM | 1130 ± 176 nM | 64 ± 8 nM | < 0.1 nM | < 0.1 nM | < 0.1 nM | –
5 | C=CC(=O)Nc1cccc(-c2c(-c3ccc(N4CCN(C)CC4)cc3)[nH]c3ncnc(OC(C)C)c23)c1 [Compound 19g] | < 14 nM | 2700 ± 758 nM | 46 µL/min/mg | 334 ± 50 nM | 1800 ± 131 nM | 38 ± 19 nM | 0.1 nM | < 0.1 nM | 0.1 nM | –
6 | C=CC(=O)Nc1cccc(-c2c(-c3ccc(N4CCN(C)CC4)cc3)[nH]c3ncn(CC)c(=O)c23)c1 [Compound 29b] | 15 ± 1 nM | 3470 ± 2010 nM | 4 µL/min/mg | 739 ± 287 nM | 4300 ± 1250 nM | < 200 nM | 0.4 ± 0.2 nM | 0.2 ± 0.1 nM | 0.5 nM | EC50 [6, 21]: 144 ± 41 nM
7 | C=CC(=O)Nc1cccc(-c2c(-c3ccc(N4CCN(C)CC4)cc3)[nH]c3ncn(C4CCCCC4)c(=O)c23)c1 [Compound 29j] | < 14 nM | 6270 ± 1270 nM | 30 µL/min/mg | 1120 ± 656 nM | 6050 ± 4600 nM | 77 ± 15 nM | 0.4 ± 0.1 nM | 0.2 ± 0.1 nM | 0.4 ± 0.1 nM | –
8 | C=CC(=O)Nc1cc(Nc2nccc(-c3cn(C)c4ccccc34)n2)c(OC)cc1N(C)CCN(C)C [Osimertinib, osimertinib, reference compound] | – | – | 60 µL/min/mg | – | 1830 ± 259 nM | – | – | – | – | EC50 ([1]; HCC827, 96 h): < 14 nM; EC50 ([2]; NCI-H358, 96 h): 2840 ± 362 nM; microsomal CLint at 3 µM [10]: 4.1 µL/min/mg; Plasma stability [11]: 78 %remain; Plasma stability [12]: 75 %remain; fraction unbound at 6 h, 5 µM [13]: 0.029; fraction unbound at 6 h, 5 µM [14]: 0.024; PAMPA flux [15]: 88%; Papp A→B at 2 h, 5 μM [16]: 5 ×10⁻⁶ cm/s; Papp B→A at 2 h, 5 μM [16]: 6.8 ×10⁻⁶ cm/s; EC50 ([4]; read-out: EGFR CTG EC50 A431): […]; EC50 ([6]; Homo sapiens, NCI-H1975, 96 h, read-out: EGFR CTG EC50 H1975): 16 ± 5 nM
